SMILES strings stand for the structures.

The compound `CC(C)n1nc(-c2sc(NC(=O)c3ccc(CNCCCN(C)C)cc3)nc2-c2ccccc2)ccc1=O` [Example 143, 4-({[3-(Dimethylamino)propyl]amino}methyl)-N-[5-(1-isopropyl-6-oxo-1,6-dihydro-3-pyridazinyl)-4-phenyl-1,3-thiazol-2-yl]benzamide] displayed a melting point of 108 to 110 °C. On to `CC(C)n1nc(-c2sc(C(N)=O)nc2-c2ccccc2)ccc1=O` [Example 161, 5-(1-Isopropyl-6-oxo-1,6-dihydro-3-pyridazinyl)-4-phenyl-1,3-thiazole-2-carboxamide], for which the melting point is 222 to 223 °C. To `CC(C)n1nc(-c2sc(NC(=O)CNCCN3CCOCC3)nc2-c2ccccc2)ccc1=O.Cl.Cl` belongs 250 to 252 °C; to `CC(C)n1nc(-c2sc(NC(=O)C3CC3)nc2-c2ccccc2)ccc1=O` [Example 33, N-[5-(1-Isopropyl-6-oxo-1,6-dihydro-3-pyridazinyl)-4-phenyl-1,3-thiazol-2-yl]cyclopropanecarboxamide], 226 to 227 °C. Compound `CC(C)n1nc(-c2sc(NC(=O)c3ccc(CN4CCOCC4)cc3)nc2-c2ccccc2)ccc1=O` [Example 27, N-[5-(1-Isopropyl-6-oxo-1,6-dihydro-3-pyridazinyl)-4-phenyl-1,3-thiazol-2-yl]-4-(4-morpholinylmethyl)benzamide] registered a melting point of 222 to 224 °C. The same measure for `CC(C)n1nc(-c2sc(NCc3ccco3)nc2-c2ccccc2)ccc1=O` [Example 66, 6-{2-[(2-Furylmethyl)amino]-4-phenyl-1,3-thiazol-5-yl}-2-isopropyl-3(2H)-pyridazinone]: 115 to 116 °C; for `CC(C)n1nc(-c2sc(NC(=O)CN(C)CCN(C)C)nc2-c2ccccc2)ccc1=O` [Example 118, 2-[(2-(Dimethylamino)ethyl)(methyl)amino]-N-[5-(1-isopropyl-6-oxo-1,6-dihydro-3-pyridazinyl)-4-phenyl-1,3-thiazol-2-yl]acetamide]: 155 to 157 °C. To `CC(C)n1nc(-c2sc(NC(=O)c3ccc(I)cc3)nc2-c2ccccc2)ccc1=O` [Example 51, 4-Iodo-N-[5-(1-isopropyl-6-oxo-1,6-dihydro-3-pyridazinyl)-4-phenyl-1,3-thiazol-2-yl]benzamide] belongs 253 to 254 °C. To `C=CCNc1nc(-c2ccccc2)c(-c2ccc(=O)n(CC=C)n2)s1` [Example 93, 2-allyl-6-[2-(allylamino)-4-phenyl-1,3-thiazol-5-yl]-3(2H)-pyridazinone] belongs 146 to 147 °C; to `CCCNC(=O)c1nc(-c2ccccc2)c(-c2ccc(=O)n(C(C)C)n2)s1` [Example 173, 5-(1-isopropyl-6-oxo-1,6-dihydro-3-pyridazinyl)-4-phenyl-N-propyl-1,3-thiazole-2-carboxamide], 141 to 142 °C.

For the compound `CC(C)n1nc(-c2sc(NC=O)nc2-c2ccccc2)ccc1=O` [Example 94, 5-(1-isopropyl-6-oxo-1,6-dihydro-3-pyridazinyl)-4-phenyl-1,3-thiazol-2-ylformamide], the melting point is 232 to 234 °C. Take `O=C(NC1CC1)c1nc(-c2ccccc2)c(-c2ccc(=O)[nH]n2)s1` [Example 188, N-cyclopropyl-5-(6-oxo-1,6-dihydro-3-pyridazinyl)-4-phenyl-1,3-thiazole-2-carboxamide]: the melting point is over 250 °C. To `Br.CNc1nc(-c2ccccc2)c(-c2ccc(=O)n(C(C)C)n2)s1` belongs 226 to 228 °C; to `CC(C)n1nc(-c2sc(NC(=O)Cc3ccccc3)nc2-c2ccccc2)ccc1=O` [Example 4, N-[5-(1-Isopropyl-6-oxo-1,6-dihydro-3-pyridazinyl)-4-phenyl-1,3-thiazol-2-yl]-2-phenylacetamide], 250 to 252 °C.

In turn, `CC(C)n1nc(-c2sc(C(=O)NN(C)C)nc2-c2ccc(F)cc2)ccc1=O` [Example 239, 4-(4-Fluorophenyl)-5-(1-isopropyl-6-oxo-1,6-dihydro-3-pyridazinyl)-N′,N′-dimethyl-1,3-thiazole-2-carbohydrazide] yielded a melting point of 169 to 170.5 °C. The same measure for `CC(C)n1nc(-c2sc(NC(=O)c3ccc(CNCCN4CCCCC4)cc3)nc2-c2ccccc2)ccc1=O` [Example 144, N-[5-(1-Isopropyl-6-oxo-1,6-dihydro-3-pyridazinyl)-4-phenyl-1,3-thiazol-2-yl]-4-({[2-(1-piperidinyl)ethyl]amino}methyl)benzamide]: 134 to 136 °C; for `C=CCn1nc(-c2sc(C(N)=O)nc2-c2ccccc2)ccc1=O` [Example 162, 5-(1-Allyl-6-oxo-1,6-dihydro-3-pyridazinyl)-4-phenyl-1,3-thiazole-2-carboxamide]: 198 to 199.5 °C; for `CC(C)n1nc(-c2sc(NC(=O)c3cc(C(F)(F)F)cc(C(F)(F)F)c3)nc2-c2ccccc2)ccc1=O` [Example 44, N-[5-(1-Isopropyl-6-oxo-1,6-dihydro-3-pyridazinyl)-4-phenyl-1,3-thiazol-2-yl]-3,5-bis(trifluoromethyl)benzamide]: 207 to 208 °C. The same measure for `CC(C)n1nc(-c2sc(NC(=O)CNCC(O)c3ccccc3)nc2-c2ccccc2)ccc1=O.Cl` (stereo not drawn): 218 to 220 °C; for `CC(C)n1nc(-c2sc(NC3CCCCC3)nc2-c2ccccc2)ccc1=O` [Example 70, 6-[2-(Cyclohexylamino)-4-phenyl-1,3-thiazol-5-yl]-2-isopropyl-3(2H)-pyridazinone]: 149 to 151 °C; for `CC(C)n1nc(-c2sc(C(N)=O)nc2-c2ccc(F)cc2)ccc1=O` [Example 165, 4-(4-Fluorophenyl)-5-(1-isopropyl-6-oxo-1,6-dihydro-3-pyridazinyl)-1,3-thiazole-2-carboxamide]: 226.5 to 227.5 °C. To `CC(C)CC(=O)Nc1nc(-c2ccccc2)c(-c2ccc(=O)n(C(C)C)n2)s1` [Example 58, N-[5-(1-Isopropyl-6-oxo-1,6-dihydro-3-pyridazinyl)-4-phenyl-1,3-thiazol-2-yl]-3-methylbutanamide] belongs 198 to 199 °C; to `CC(C)n1nc(-c2sc(C(N)=O)nc2-c2ccccc2F)ccc1=O` [Example 163, 4-(2-Fluorophenyl)-5-(1-isopropyl-6-oxo-1,6-dihydro-3-pyridazinyl)-1,3-thiazole-2-carboxamide], 213 to 215 °C. The compound `Nc1nc(-c2ccccc2)c(-c2ccc(=O)n(CC3CC3)n2)s1` [Example 88, 6-(2-Amino-4-phenyl-1,3-thiazol-5-yl)-2-(cyclopropylmethyl)-3(2H)-pyridazinone] showed a melting point of 204 to 206 °C.

`CC(C)n1nc(-c2sc(NCCN3CCOCC3)nc2-c2ccccc2)ccc1=O.Cl.Cl` registered a melting point of 140 to 143 °C. `CC(C)n1nc(-c2sc(NC=O)nc2-c2ccc(F)cc2)ccc1=O` [Example 76, 4-(4-fluorophenyl)-5-(1-isopropyl-6-oxo-1,6-dihydro-3-pyridazinyl)-1,3-thiazol-2-ylformamide]: the melting point is 230 to 231 °C. The same measure for `CC(C)n1nc(-c2sc(N)nc2-c2ccccc2)ccc1=O` [Example 1, 6-(2-amino-4-phenyl-1,3-thiazol-5-yl)-2-isopropyl-3(2H)-pyridazinone]: over 250 °C.

One may read the melting point as the temperature, or range, at which the solid turns liquid.

Values taken from patent US20050004134A1, “Thiazole derivative and pharmaceutical use thereof” (priority 2001, published 2005).
